Tested on: HFD-fed wild-type mice
Experiment: Sphingolipid levels in tissues and serum of HFD-fed mice by mass spectrometry
Format: in vivo, mouse
Conditions: for Cer 14:0 / Cer 16:0 / Cer 18:0 / Cer 18:1 / Cer 20:0 / Cer 22:0 / Cer 24:0 / Cer 24:1 / Cer 26:0 / Cer 26:1 / DeoxySphinganie / Deoxysphingosine / Hexosyl 14:0 / Hexosyl 16:0 / Hexosyl 18:0 / Hexosyl 20:0 / Hexosyl 22:0 / Hexosyl 24:0 / Hexosyl 24:1 / Lactosyl 16:0 / Lactosyl 18:0 / Lactosyl 22:0 / Lactosyl 24:1 / Lactosyl C24:0 / Sphingaine1P / Sphinganine / Sphingosine / Sphingosine1P / dCer 16:0 / dCer 18:0 / dCer 20:0 / dCer 22:0 / dCer 24:0 / dCer 24:1: 5 mg/kg twice a day 5 days, average ± SD
Experimental: Six-week-old wild-type male mice were fed HFD for 4 weeks or 7 months In total, 5 mg/Kg of PBS, Adiporon, AdipoRonPEG5, AdipoRonPEG6HTL were injected twice a day for 5 days. After 5 days of treatment, systemic test is performed, and serum (Before and after treatment), subcutaneous, epididymal, liver, heart samples were harvested for qPCR and sphingolipid analysis.
Flash-frozen tissue samples (~40 mg) in a borosilicate glass tube were quenched with 2.0 ml of organic extraction solvent (isopropanol: ethyl acetate, 15:85; v:v) and homogenized with a mechanical tissue disruptor. Immediately afterward, 20 μl of organic internal standard solution was added (Ceramide/Sphingoid Internal Standard Mixture II diluted 1:10 in ethanol). The mixture was vortexed for 20 s and sonicated in ultrasonic bath for 40 min at 40°C. The organic extract was allowed to reach room temperature, and 1.5 ml of HPLC water was added and a two-phase liquid-liquid extraction was performed. The upper phase was transferred to a new clean tube, and the lower aqueous phase containing the protein pellet was re-extracted with additional 2.0 ml of organic extraction solvent. The organic phases were combined and dried under nitrogen stream at 40°C. Dried extracts were stored at –80°C until analysis. For analysis of ceramides and sphingoid base species, the dried residues were reconstituted in 200 μl of methanol. Sphingomyelins required a sample dilution of 1:50 in methanol prior to analysis. Serum sphingolipids were extracted using a similar methodology requiring 25 μl of serum.
Liver, subcutaneous adipose tissue, pancreas, pancreatic islets were initially homogenized in 500 μl of cold PBS using an ultrasonic probe disruptor and keeping the sample on ice during sonication. In total, 50 μl of aqueous homogenate was aliquoted for protein determination. In total, 400 μl of the lysate was immediately quenched in 2.0 ml of organic extraction solvent.
In total, 5 μl of reconstituted samples was injected into an LC/MS/MS system for the analysis of ceramides and sphingoid bases, and 1 μl injection was required for the analysis of sphingomyelins. The system consisted of a Shimadzu LCMS-8050 triple-quadrupole mass spectrometer with the dual ion source operating in electrospray positive ionization mode. The mass spectrometer is coupled to a Shimadzu Nexera X2 UHPLC system equipped with three solvent delivery modules LC-30AD, three degassing units DGU-20A5R, an autosampler SIL-30ACMP, and a column oven CTO-20AC operating at 40°C (Shimadzu Scientific Instruments, Columbia, MD). Six sphingoid bases (d18:1 sphingosine, d18:1 sphingosine-1-phosphate, d18:1 deoxysphingosine, d18:0 sphinganine, d18:0 sphinganine-1-phosphate, d18:0 deoxysphinganine) and […] ceramide species and their metabolites (C16:0, C16:0 dihydroceramide, C16:0 glucosylceramide, C16:0 lactosylceramide, C16:0 sphingomyelin, C18:0, C18:0 dihydroceramide, C18:0 glucosylceramide, C18:0 sphingomyelin, C18:1, C20:0, C22:0, C22:0 glucosylceramide, C24:0, C24:0 dihydroceramide, C24:0 lactosylceramide, C24:0 sphingomyelin, C24:1, C24:1 dihydroceramide, C24:1 glucosylceramide, C24:1 sphingomyelin). Quantitative analysis of sphingolipids was achieved using selective reaction monitoring scan mode. Lipid separation was achieved by reverse phase LC on a 2.1 (i.d.) × 150 mm Ascentis Express C8, 2.7 micron (Supelco, Bellefonte, PA) column under gradient elution, using three different mobile phases: eluent A consisting of methanol/water/formic acid, 600/400/0.8, v/v/v with 5 mM ammonium formate, eluent B consisting of methanol/formic acid, 1,000/0.8, v/v with 5 mM ammonium formate, and eluent C consisting of CH3OH/CH2Cl2 350/650. The concentration of each metabolite was determined according to calibration curves using the peak-area ratio of analyte versus corresponding internal standard. Calibration curves were generated using serial dilutions of each target analyte.

In the case of `O=C(COc1ccc(C(=O)c2ccccc2)cc1)NC1CCN(Cc2ccccc2)CC1` [AdipoRon], the “scWAT ceramide levels” value (5 mg/kg) is reported as “neither AdipoRon nor AdipoRonPEG5 had a noticeable impact”, the “hepatic dihydroceramides” value (IP 5 mg/kg) is reported as “nor did it lower dihydroceramide” and the “sphingoid bases including S1P in the liver” value (IP 5 mg/kg) is reported as “neither increased sphingoid bases”. The “Cer 14:0” value (liver) was 11180.9 ± 7129.23 pg/mg, the “Cer 16:0” value (liver) was 15452.5 ± 14214.83 pg/mg and the “Cer 18:0” value (liver) was 47128.6 ± 39264.7 pg/mg. For the same molecule, the “Cer 18:1” value (liver) was 0 pg/mg, the “Cer 20:0” value (liver) was 2021924.3 ± 1132557.52 pg/mg and the “Cer 22:0” value (liver) was 21221267.5 ± 1938950.14 pg/mg. For the same molecule, the “Cer 24:0” value (liver) was 8844684.8 ± 1440139.38 pg/mg, the “Cer 24:1” value (liver) was 7621686.9 ± 1072827.16 pg/mg and the “Cer 26:0” value (liver) was 108319.5 ± 12837.73 pg/mg. The “Cer 26:1” value (liver) was 87632.7 ± 14143.63 pg/mg, the DeoxySphinganie (liver) was 16855.9 ± 5197.82 pg/mg and the Deoxysphingosine (liver) was 554.4 ± 112.17 pg/mg. The “Hexosyl 14:0” value (liver) was 6839.3 ± 2807.56 pg/mg, the “Hexosyl 16:0” value (liver) was 2057918.6 ± 682419.73 pg/mg and the “Hexosyl 18:0” value (liver) was 13702.3 ± 11183.27 pg/mg. The “Hexosyl 20:0” value (liver) was 139906.7 ± 74494.86 pg/mg, the “Hexosyl 22:0” value (liver) was 21992555.3 ± 7887275.74 pg/mg and the “Hexosyl 24:0” value (liver) was 9407290.2 ± 3691767.57 pg/mg. The “Hexosyl 24:1” value (liver) was 7250991.4 ± 2638110.11 pg/mg, the “Lactosyl 16:0” value (liver) was 401293.8 ± 92547.01 pg/mg and the “Lactosyl 18:0” value (liver) was 0.0 ± 0.0 pg/mg. The “Lactosyl 22:0” value (liver) was 604972.0 ± 219908.19 pg/mg, the “Lactosyl 24:1” value (liver) was 424590.5 ± 191122.31 pg/mg and the “Lactosyl C24:0” value (liver) was 317251.2 ± 183613.54 pg/mg. It also gave a Sphingaine1P (liver) of 55129.9 ± 14495.18 pg/mg, a Sphinganine (liver) of 299552.9 ± 52030.89 pg/mg and a Sphingosine (liver) of 1192462 ± 75216.97 pg/mg. For the same molecule, the Sphingosine1P (liver) was 178631.8 ± 67607.36 pg/mg, the “dCer 16:0” value (liver) was 18233.3 ± 21176.21 pg/mg and the “dCer 18:0” value (liver) was 45901.3 ± 42922.13 pg/mg. The “dCer 20:0” value (liver) was 37867.7 ± 27772.5 pg/mg, the “dCer 22:0” value (liver) was 385034 ± 150652 pg/mg and the “dCer 24:0” value (liver) was 364847.1 ± 73663.91 pg/mg. The “dCer 24:1” value (liver) was 130075.8 ± 53105.06 pg/mg, the “Cer 14:0” value (pancreas) was 26.4 ± 4.51 pg/mg and the “Cer 16:0” value (pancreas) was 26.1 ± 10.18 pg/mg. The “Cer 18:0” value (pancreas) was 28.9 ± 6.11 pg/mg, the “Cer 18:1” value (pancreas) was 0 pg/mg and the “Cer 20:0” value (pancreas) was 1529.7 ± 140.3 pg/mg. The “Cer 22:0” value (pancreas) was 7541.1 ± 1118.82 pg/mg, the “Cer 24:0” value (pancreas) was 21064.5 ± 2932.0 pg/mg and the “Cer 24:1” value (pancreas) was 10791.6 ± 1783.65 pg/mg. For the same molecule, the “Cer 26:0” value (pancreas) was 155.6 ± 36.08 pg/mg, the “Cer 26:1” value (pancreas) was 81.6 ± 16.04 pg/mg and the DeoxySphinganie (pancreas) was 2.1 ± 0.29 pg/mg. The Deoxysphingosine (pancreas) was 0.0 ± 0.0 pg/mg, the “Hexosyl 14:0” value (pancreas) was 3.8 ± 0.85 pg/mg and the “Hexosyl 16:0” value (pancreas) was 2561.5 ± 453.4 pg/mg. The “Hexosyl 18:0” value (pancreas) was 7.3 ± 3.14 pg/mg, the “Hexosyl 20:0” value (pancreas) was 112.7 ± 34.01 pg/mg and the “Hexosyl 22:0” value (pancreas) was 6774.3 ± 637.6 pg/mg. For the same molecule, the “Hexosyl 24:0” value (pancreas) was 3358.5 ± 311.97 pg/mg, the “Hexosyl 24:1” value (pancreas) was 1427.8 ± 124.45 pg/mg and the “Lactosyl 16:0” value (pancreas) was 975.8 ± 208.21 pg/mg. For the same molecule, the “Lactosyl 18:0” value (pancreas) was 52.8 ± 9.76 pg/mg, the “Lactosyl 22:0” value (pancreas) was 223.0 ± 50.43 pg/mg and the “Lactosyl 24:1” value (pancreas) was 310.1 ± 93.68 pg/mg. The “Lactosyl C24:0” value (pancreas) was 2057.1 ± 422.83 pg/mg, the Sphingaine1P (pancreas) was 17.5 ± 11.69 pg/mg and the Sphinganine (pancreas) was 25.9 ± 3.48 pg/mg. The Sphingosine (pancreas) was 217.3 ± 27.75 pg/mg, the Sphingosine1P (pancreas) was 90.3 ± 22.26 pg/mg and the “dCer 16:0” value (pancreas) was 3.8 ± 1.52 pg/mg. The “dCer 18:0” value (pancreas) was 0.0 ± 0.0 pg/mg, the “dCer 20:0” value (pancreas) was 2.0 ± 0.18 pg/mg and the “dCer 22:0” value (pancreas) was 24.6 ± 9.85 pg/mg. For the same molecule, the “dCer 24:0” value (pancreas) was 206.7 ± 49.68 pg/mg, the “dCer 24:1” value (pancreas) was 24.0 ± 10.28 pg/mg and the “Cer 14:0” value (scWAT) was 41670.5 ± 9888.98 pg/mg. For the same molecule, the “Cer 16:0” value (scWAT) was 200569.4 ± 60832.18 pg/mg, the “Cer 18:0” value (scWAT) was 90968.7 ± 40221.97 pg/mg and the “Cer 18:1” value (scWAT) was 24648 ± 8680 pg/mg. For the same molecule, the “Cer 20:0” value (scWAT) was 189778.3 ± 38166.38 pg/mg, the “Cer 22:0” value (scWAT) was 835762.6 ± 112294.65 pg/mg and the “Cer 24:0” value (scWAT) was 2316061.3 ± 1012651.99 pg/mg. The “Cer 24:1” value (scWAT) was 2616280.7 ± 714833.34 pg/mg, the “Cer 26:0” value (scWAT) was 25284.4 ± 8047.31 pg/mg and the “Cer 26:1” value (scWAT) was 27852.3 ± 8212.8 pg/mg. The DeoxySphinganie (scWAT) was 1039.3 ± 1085.07 pg/mg, the Deoxysphingosine (scWAT) was 0.0 ± 0.0 pg/mg and the “Hexosyl 14:0” value (scWAT) was 3863.9 ± 2313.65 pg/mg. The “Hexosyl 16:0” value (scWAT) was 1558779.8 ± 419292.53 pg/mg and the “Hexosyl 18:0” value (scWAT) was 879349.9 ± 318302.5 pg/mg.

Source: paper PMC8327158, “PEGylated AdipoRon derivatives improve glucose and lipid metabolism under insulinopenic and high-fat diet conditions” (Journal of Lipid Research, 2021)
